# From patent US9448226B2, “Method of toxicological evaluation, method of toxicological screening and associated system” (Universite Technologie De Compiegne—UTC, priority 2010, dated 2016)
# Experiments:
# HEPG2/C3A cells = assay: Metabolic response of C3A bioartificial liver in bioreactor to xenobiotic (1H NMR, PLS regression); format: cell-based, human; parameters: key: +: sign of the variation of its concentration (in brackets) when the amount of xenobiotic in the experiment increases; −: sign of the variation of its concentration (in brackets) when the amount of xenobiotic in the experiment increases
# Excerpt: (§1) In the preferred embodiment described, ^1H NMR spectroscopy (proton NMR, which makes it possible to detect hydrogen atoms) was used to carry out a series of tests. These tests involved two cell lines and three potentially toxic substances, with the two lines being optionally in coculture. These cells are in one case HEPG2/C3A cells, or simply C3A, human hepatocyte cells, and in the other case Madin-Darby canine kidney (MDCK) cells. […] In particular, mention may be made of the pancreas, the heart, the testicles, parts of the brain, etc.
# (§2) The medium samples are, for example, prepared using 350 μl of medium, mixed with 200 μl of 0.9 g/l saline solution composed of 90% water (H2O) and 10% heavy water (D2O), for the purpose of calibration. The 550 μl of solution is then transferred to an NMR analysis tube.
# (§3) NMR is acquired at a frequency of 700 MHz by using a proton probe. A ^1D NMR spectrum is recorded using presaturation of the resonance of the water according to the following sequence: Trd-P90-t1-P90-tm-P90-Taq. Trd represents a delay of 2 seconds during which the resonance of the water is selectively irradiated, P90 is a 90° pulse of radio frequency and t1 corresponds to a delay of 3 μs. The resonance of the water is irradiated a second time during the mixing time (tm=100 ms) and an acquisition time of 1.95 s. For each sample, 128 interferograms are accumulated in order to increase the signal-to-noise ratio. These interferograms are multiplied by an exponential function corresponding to a 0.3 Hz enlarging of the line. Before obtaining a Fourier transform, the width of the interferogram is doubled by adding null points at the end of the interferogram, in order not to degrade the resolution of the spectrum. The scale in the horizontal dimension corresponds to the ^1H chemical shifts. It extends over a window of 10 ppm around the resonance of water. The scale in the vertical dimension corresponds to resonance intensity which is proportional to the number of protons present for a chemical group of each molecule of the sample. The spectra are then phased and a linear correction of the baseline is carried out, before calibration on the signal of the […] anomer of glucose at 5.23 ppm. The area between 4.67 ppm and 5 ppm around the residual signal of water is suppressed for better visibility, and the spectra are exported as a multidimensional data set.
# (§4) The statistical analysis consists first of an unsupervised principal components analysis in order to locate aberrant points in the multidimensional data set. The principal components analysis makes it possible to compress the 40,000 redundant NMR present in the data set in a new orthonormal reference, with each axis representing a principal component of the variance of the data set, which is thus multidimensional. A so-called supervised multivariate statistical analysis is then carried out in order to discriminate culture conditions or groups of doses and to identify the metabolic signatures specific to the toxicological effects. This supervised analysis is principally carried out using partial least squares regression, through partial least squares discriminant analysis (PLS-DA), without however being limited to it. A PLS regression, just like a linear regression, makes it possible to identify the components of the data set (explanatory variables, X) that are quantitatively correlated with the non-explanatory variable (Y), whether the culture conditions, the cell type of the bioartificial organ, the type of treatment administered or the treatment dose. Artificial neural network structures can also be programmed to carry out this multivariate analysis.
# (§5) Third, the metabolic responses of the various organs to various exposures to NH3 were studied. Three amounts of NH3 were administered (0 mM, 5 mM and 10 mM) to each type of bioartificial organ.
# C3A/MDCK coculture = settings: NH3 0 mM, 5 mM and 10 mM
# Excerpt: as §1, §2, §3, §4, §5
# [1] = system: Madin-Darby canine kidney (MDCK) cells; settings: Bioartificial kidney (MDCK cells); NH3 0 mM, 5 mM and 10 mM
# Excerpt: as §1, §2, §3, §4, §5
# C3A cells = assay: Metabolic response of C3A cell culture in Petri dishes to APAP (1H NMR, PLS regression); format: cell-based, human; parameters: key: +: sign of the variation of its concentration (in brackets) when the amount of xenobiotic in the experiment increases; −: sign of the variation of its concentration (in brackets) when the amount of xenobiotic in the experiment increases; settings: amount of xenobiotic increases
# Experimental: Fourth, the specific metabolic responses of bioartificial livers exposed to various toxins were characterized (Table 4). Several toxic substances (NH3 ([…]); DMSO (0%, 1%, 2%, 4%); APAP (0.1 mM)) were administered to bioartificial livers comprised of C3A cells. In the case of treatment with APAP, the response of the bioartificial liver was compared with that of liver cells in culture in Petri dishes. […] The result is four PLS models specific to each treatment type: NH3 on C3A bioartificial liver, DMSO on C3A bioartificial liver, APAP on C3A bioartificial liver and, finally, APAP on C3A cell culture in Petri dishes. […] This table presents for each metabolite the sign of the variation of its concentration (in brackets) when the amount of xenobiotic in the experiment increases.
# [2] = Bioartificial liver (C3A cells), NH3 0 mM, 5 mM and 10 mM
# [3] = C3A bioartificial liver, amount of xenobiotic increases (Table 4)
structure (smiles),measurement,setting,value
"N [NH3, ammonia]",Variation of Alanine concentration,HEPG2/C3A cells; [2],+
same,Variation of Alpha-keto-isovalerate concentration,HEPG2/C3A cells; [2],−
same,Variation of Alpha-keto-methylvalerate concentration,HEPG2/C3A cells; [2],−
same,Variation of Isoleucine concentration,HEPG2/C3A cells; [2],+
same,Variation of Leucine concentration,HEPG2/C3A cells; [2],+
same,Variation of Succinate concentration,HEPG2/C3A cells; [2],+
same,Variation of Valine concentration,HEPG2/C3A cells; [2],+
same,Variation of Alanine concentration,HEPG2/C3A cells; [3],Alanine (+)
same,Variation of Alpha-keto-isovalerate concentration,HEPG2/C3A cells; [3],isovalerate (−)
same,Variation of Alpha-keto-methylvalerate concentration,HEPG2/C3A cells; [3],methylvalerate (−)
same,Variation of Isoleucine concentration,HEPG2/C3A cells; [3],Isoleucine (+)
same,Variation of Leucine concentration,HEPG2/C3A cells; [3],Leucine (+)
same,Variation of Succinate concentration,HEPG2/C3A cells; [3],Succinate (+)
same,Variation of Valine concentration,HEPG2/C3A cells; [3],Valine (+)
same,Variation of Alpha-hydroxyisobutyrate concentration,C3A/MDCK coculture,+
same,Variation of Glutamate concentration,C3A/MDCK coculture,+
same,Variation of Glutamine concentration,C3A/MDCK coculture,+
same,Variation of Lysine concentration,C3A/MDCK coculture,+
same,Variation of Ornithine concentration,C3A/MDCK coculture,−
same,Variation of Succinate concentration,C3A/MDCK coculture,+
same,Variation of Valine concentration,C3A/MDCK coculture,+
same,Variation of Glutamine concentration,[1],−
same,Variation of Lysine concentration,[1],−
same,Variation of Oxaloacetate concentration,[1],−
same,Variation of Pyroglutamate concentration,[1],+
same,Variation of Pyruvate concentration,[1],−
same,Variation of Unknown metabolite concentration,[1],−
"C[S+](C)[O-] [DMSO, dimethyl sulfoxide]",Variation of Alpha-keto-isovalerate concentration,HEPG2/C3A cells; [3],isovalerate (−)
same,Variation of Alpha-keto-methylvalerate concentration,HEPG2/C3A cells; [3],methylvalerate (−)
same,Variation of Glucose concentration,HEPG2/C3A cells; [3],Glucose (+)
same,Variation of Lactate concentration,HEPG2/C3A cells; [3],Lactate (−)
same,Variation of Phenylalanine concentration,HEPG2/C3A cells; [3],Phenylalanine (+)
same,Variation of Tyrosine concentration,HEPG2/C3A cells; [3],Tyrosine (+)
"CC(=O)Nc1ccc(O)cc1 [APAP, N-acetyl-para-aminophenol]",Variation of Acetate concentration,HEPG2/C3A cells; [3],Acetate (+)
same,Variation of Isoleucine concentration,HEPG2/C3A cells; [3],Isoleucine (−)
same,Variation of Pyruvate/oxaloacetate concentration,HEPG2/C3A cells; [3],oxaloacetate (−)
same,Variation of Succinate concentration,HEPG2/C3A cells; [3],Succinate (−)
same,Variation of Tyrosine concentration,HEPG2/C3A cells; [3],Tyrosine (+)
same,Variation of Unknown metabolite concentration,HEPG2/C3A cells; [3],Unknown (−)
same,Variation of Arginine concentration,C3A cells,Arginine (−)
same,Variation of Ethanol concentration,C3A cells,Ethanol (−)
same,Variation of Glutamate concentration,C3A cells,Glutamate (−)
same,Variation of Isoleucine concentration,C3A cells,Isoleucine (−)
same,Variation of Leucine concentration,C3A cells,Leucine (−)
same,Variation of Lysine concentration,C3A cells,Lysine (−)
same,Variation of Phenylalanine concentration,C3A cells,Phenylalanine (−)
